Measured values reported in the PolyMetriX glass transition set.

Row | glass transition temperature | SMILES
1 | -4.00 °C | *CCCCCCCCCCC(c1ccc(O)cc1)C(*)c1ccc(O)cc1C (repeat unit)
2 | 155.80 °C | *Oc1ccc(OC(=O)c2ccc(C(*)=O)cc2)cc1-c1cccc(C(F)(F)F)c1 (repeat unit)
3 | -17.00 °C | *CCCCCCOC(=O)OCCCCCCCCOC(=O)OCCCCCCOc1ccc(Oc2ccc(O*)cc2)cc1 (repeat unit)
4 | 218.00 °C | *Oc1ccc(C(c2ccc(Oc3ccc(C(=O)Nc4ccc(NC(=O)c5ccc(*)cc5)cc4)cc3)cc2)(C(F)(F)F)C(F)(F)F)cc1 (repeat unit)
5 | 8.50 °C | *CC(*)(C)C(=O)OCCCCCCN(C)c1ccc(N(C)C)cc1 (repeat unit)
6 | 31.00 °C | *CC(*)(C)C(=O)OCCCCCCCCCCOc1ccc(OC(=O)c2ccc(OCCCC)cc2)cc1 (repeat unit)
7 | 96.00 °C | *Oc1ccc(CC(NC(=O)CCc2ccc(OC(*)=O)cc2)C(=O)OCC)cc1 (repeat unit)
8 | 224.00 °C | *c1ccc(Oc2ccc(C(c3ccc(Oc4ccc(-c5nc(-c6ccccn6)nnc5*)cc4)cc3)(C(F)(F)F)C(F)(F)F)cc2)cc1 (repeat unit)
9 | 166.00 °C | *Oc1ccc2ccc(Oc3ccc(C(=O)Nc4ccc(Oc5ccc(C(C)(C)c6ccc(C(C)(C)c7ccc(Oc8ccc(NC(=O)c9ccc(*)cc9)cc8)cc7)cc6)cc5)cc4)cc3)cc2c1 (repeat unit)
10 | 160.00 °C | *CCOC(=O)Nc1ccc(C)c(NC(=O)OCCOc2cc([N+](=O)[O-])ccc2/N=N/c2cn(*)c3ccc(-c4ccc5c(c4)c4ccccc4n5CCCC)cc23)c1 (repeat unit)
11 | 68.00 °C | *CC(*)C(=O)OCCCCn1c2ccccc2c2ccccc21 (repeat unit)
12 | 17.00 °C | *CCCCCCNC(=O)CCC(C)CC(=O)N* (repeat unit)
13 | -36.00 °C | *CCCCCCCCCCCCC(=O)O* (repeat unit)
14 | 50.00 °C | *CCCCCCCCCCOC(=O)c1ccc(-c2ccc(-c3ccc(C(=O)O*)cc3)cc2)cc1 (repeat unit)
15 | 10.00 °C | *CC(*)(C)C(=O)OCCCCCCCCCCCOc1ccc(C(=O)Oc2ccc(C#N)cc2)cc1 (repeat unit)
16 | 19.60 °C | *CCCCCCCCOc1ccc(C(C)(C)c2ccc(O*)cc2)cc1 (repeat unit)
17 | 37.00 °C | */C=C/c1ccc(OC(=O)CCCCCCCCC(=O)Oc2cccc(-c3nnc(*)s3)c2)cc1 (repeat unit)
18 | 170.00 °C | *c1ccc2c(c1)C(CCCCCC)(CCCCCC)c1cc(-c3ccc4c(c3)c3cc(*)ccc3n4-c3ccccc3)ccc1-2 (repeat unit)
19 | 6.50 °C | *CCCCCCCC(=O)OC1COC(*)OC1 (repeat unit)
20 | 124.00 °C | *c1ccc(-c2ccc(N3C(=O)c4ccc(Oc5ccc6c(c5)C(=O)N(*)C6=O)cc4C3=O)c(OCCCCCCOc3ccc(/C=C/c4ccc(F)cc4)cc3)c2)cc1OCCCCCCOc1ccc(/C=C/c2ccc(F)cc2)cc1 (repeat unit)
21 | 276.00 °C | *Oc1ccc(NC(=O)c2ccc3cc(C(=O)Nc4ccc(Oc5ccc(C6(c7ccc(*)cc7)CC7CCC6C7)cc5)cc4)ccc3c2)cc1 (repeat unit)
22 | 342.00 °C | *c1ccc(Oc2ccc(N3C(=O)C4CCC5C(=O)N(*)C(=O)C5C4C3=O)cc2)cc1 (repeat unit)
23 | 200.00 °C | *C(=O)Oc1ccc(C(C)(C)c2ccc(OC(=O)c3ccc4c(c3)C(=O)N(c3ccc(Oc5ccc(N6C(=O)c7ccc(*)cc7C6=O)cc5)cc3)C4=O)cc2)cc1 (repeat unit)
24 | 144.00 °C | *Oc1ccc(C2(c3ccc(Oc4ccc(C(=O)Oc5ccc(C(C)(C)c6ccc(OC(=O)c7ccc(*)cc7)cc6)cc5)cc4)cc3)CCC(C(C)(C)C)CC2)cc1 (repeat unit)
25 | 7.00 °C | *CCCCCCOC(=O)C(CCCCCBr)C(=O)OCCCCCCOc1ccc(-n2on2-c2ccc(O*)cc2)cc1 (repeat unit)
26 | 119.00 °C | *CC(O)COc1ccc(C(C)(C)c2ccc(OCC(O)COc3cccc(NC(=O)C(=O)Nc4cccc(O*)c4)c3)cc2)cc1 (repeat unit)
27 | 60.00 °C | *Oc1cc(OC(=O)c2ccc(OCC(C)CC)cc2)c(OC(=O)CCCC(*)=O)cc1OC(=O)c1ccc(OCC(C)CC)cc1 (repeat unit)
28 | 140.00 °C | *CCOC(=O)NC1CCC(CC2CCC(NC(=O)OCCOc3ccc(C4(c5ccc(O*)cc5)c5ccccc5-c5ccccc54)cc3)CC2)CC1 (repeat unit)
29 | 78.00 °C | *CCCCCCOc1ccc(C(=O)N(C(=O)c2ccc(O*)cc2)c2ccc(Oc3ccccc3)cc2)cc1 (repeat unit)

More lines, now with the values behind:

Row | SMILES | glass transition temperature
30 | *c1ccc2c(c1)C(=O)N(c1ccc(C(=O)Nc3ccc(C(c4ccc(NC(=O)c5ccc(N6C(=O)c7ccc(C(*)(C(F)(F)F)C(F)(F)F)cc7C6=O)c(C)c5)cc4)(C(F)(F)F)C(F)(F)F)cc3)cc1C)C2=O (repeat unit) | 344.00 °C
31 | *c1ccc(-c2ccc(-c3nc4cc(Oc5ccc6nc(-c7ccccc7)c(*)nc6c5)ccc4nc3-c3ccccc3)cc2)cc1 (repeat unit) | 410.00 °C
32 | *c1ccc(Oc2cccc(Oc3ccc(N4C(=O)c5cccc(Oc6ccc(C(=O)c7ccc(Oc8cccc9c8C(=O)N(*)C9=O)cc7)cc6)c5C4=O)cc3)c2)cc1 (repeat unit) | 216.00 °C
33 | *c1ccc(-c2c(-c3ccccc3)nc3ccc(Oc4ccc5nc(-c6ccccc6)c(*)c(-c6ccccc6)c5c4)cc3c2-c2ccccc2)cc1 (repeat unit) | 311.00 °C
34 | *c1ccc(-c2ccc(-c3nc4ccc(-c5ccc6nc(*)c(-c7ccccc7)c(-c7ccccc7)c6c5)cc4c(-c4ccccc4)c3-c3ccccc3)cc2)cc1 (repeat unit) | 420.00 °C
35 | *CC(*)c1ccc([Si](C)(O[Si](C)(C)C)O[Si](C)(C)C)cc1 (repeat unit) | 54.00 °C
36 | *CCCN(*)C(=O)CC (repeat unit) | 8.00 °C
37 | *CCN(Cc1ccccc1)C(=O)S* (repeat unit) | 32.00 °C
38 | *C(=O)Oc1ccc(OC(=O)c2ccc3c(c2)C(=O)N(c2ccc(Oc4ccc(N5C(=O)c6ccc(*)cc6C5=O)cc4)cc2)C3=O)c(-c2ccccc2)c1 (repeat unit) | 212.00 °C
39 | *CC(*)(C)C(=O)Oc1cccc(C)c1C (repeat unit) | 120.00 °C
40 | *CC(*)C(=O)OCC(F)(F)C(F)(F)C(F)(F)C(F)F (repeat unit) | -35.00 °C
41 | *c1ccc(C2(c3ccc(-c4cc(-c5ccccc5)c5cc(C6(c7ccc8nc(*)cc(-c9ccccc9)c8c7)c7ccccc7-c7ccccc76)ccc5n4)cc3)c3ccccc3-c3ccccc32)cc1 (repeat unit) | 390.00 °C
42 | *Nc1ccc(Cc2ccc(NC(=O)c3cccc(C(*)=O)c3)cc2)cc1 (repeat unit) | 265.00 °C
43 | *Sc1cc(C)c(*)cc1C (repeat unit) | 298.00 °C
44 | *CCCCCCCCCNC(=O)CCCCCCCCCCCCCCCCCCC(=O)N* (repeat unit) | 42.00 °C
45 | *C(=O)c1ccc2nc(-c3ccccc3)c(-c3ccc(-c4nc5cc(*)ccc5nc4-c4ccccc4)cc3)nc2c1 (repeat unit) | 325.00 °C
46 | *c1ccc(Oc2ccc(C(=O)c3ccc(Oc4ccc(-c5nc6ccccc6n5-c5ccc(-n6c(*)nc7ccccc76)cc5)cc4)cc3)cc2)cc1 (repeat unit) | 242.00 °C

Row | SMILES | glass transition temperature
47 | *CC1CCC(COC(=O)O*)CC1 (repeat unit) | 38.70 °C
48 | *CC(*)n1ccnc1 (repeat unit) | 175.00 °C
49 | *c1cc(C(=O)OC)cc(N2C(=O)CC(C3Cc4ccccc4C4C(=O)N(*)C(=O)C43)C2=O)c1 (repeat unit) | 258.00 °C
50 | *CC(*)SCC (repeat unit) | -7.00 °C
51 | *c1ccc(-c2ccc(N3C(=O)c4ccc(Oc5ccc6c(c5)C(=O)N(*)C6=O)cc4C3=O)cc2C(F)(F)F)c(C(F)(F)F)c1 (repeat unit) | 275.00 °C
52 | *c1ccc(Oc2ccc(N3C(=O)c4ccc(Oc5ccc6cc(Oc7ccc8c(c7)C(=O)N(*)C8=O)ccc6c5)cc4C3=O)cc2)cc1 (repeat unit) | 249.00 °C
53 | *c1ccc2c(c1)C(=O)N(c1cc(C(c3ccc(OCCN(CC)c4ccc(/N=N/c5ccc([N+](=O)[O-])cc5)cc4)c(N4C(=O)c5ccc(C(*)(C(F)(F)F)C(F)(F)F)cc5C4=O)c3)(C(F)(F)F)C(F)(F)F)ccc1OCCN(CC)c1ccc(/N=N/c3ccc([N+](=O)[O-])cc3)cc1)C2=O (repeat unit) | 199.00 °C
54 | *c1ccc(Nc2ccc(C3(c4ccc(Nc5ccc(S(*)(=O)=O)cc5)cc4)c4ccccc4-c4ccccc43)cc2)cc1 (repeat unit) | 221.00 °C
55 | */C=C/c1cc(CCCCCCCCCCCCCCCC)c(/C=C/c2nc(*)c(C#N)c(/C=C/c3ccc(N(c4ccccc4)c4ccccc4)cc3)c2C#N)cc1CCCCCCCCCCCCCCCC (repeat unit) | 165.00 °C
56 | *c1ccc(Cc2ccc(-n3nccc3-c3cccc(-c4ccnn4*)c3)cc2)cc1 (repeat unit) | 212.00 °C
57 | *c1ccc(-c2cnc3ccc(S(=O)(=O)c4ccc5ncc(*)nc5c4)cc3n2)cc1 (repeat unit) | 342.00 °C
58 | *c1ccc(-c2nc3cc(Oc4ccc(NC(=O)CN5C(=O)c6ccc(C(c7ccc8c(c7)C(=O)N(CC(=O)Nc7ccc(Oc9ccc%10nc(-c%11ccccc%11)c(*)nc%10c9)cc7)C8=O)(C(F)(F)F)C(F)(F)F)cc6C5=O)cc4)ccc3nc2-c2ccccc2)cc1 (repeat unit) | 280.00 °C
59 | *OP(=O)(Oc1ccc(NC(=O)OCCCCCCOC(=O)Nc2ccc(*)cc2)cc1)c1ccccc1 (repeat unit) | -3.00 °C
60 | *CC(*)OC(=O)c1ccccc1 (repeat unit) | 70.40 °C
61 | *OC(=O)NC1CCC(CC2CCC(NC(=O)OC3CC4CC(*)CC(C3)O4)CC2)CC1 (repeat unit) | 225.00 °C
62 | *Cc1cccc(CNC(=O)c2ccccc2-c2ccccc2C(=O)N*)c1 (repeat unit) | 159.00 °C
63 | *O[Si](C)(C)O[Si](C)(C)c1c(F)c(F)c(F)c([Si](*)(C)C)c1F (repeat unit) | -61.00 °C
